Reference: US4086416A, “Septacidin analogs” (Stanford Research Institute, priority 1977, dated 1978)
“Also recorded” adds a separate entry of the source. Where two headings read alike, the source gives them in different places. Each block holds one compound with its values, some of them ahead of it.

Experiments:
isolated helical DNA [1] = details: cited from earlier work
[2] = test system: lymphocytic leukemia P388 implanted in mice; details: cited from earlier work
[3] = test system: cultured lymphoid leukemia L1210 cells; details: data from Tong et al. 1976, read-out: Inhibition of Synthesis of DNA, ED50; cited from earlier work
[4] = test system: cultured lymphoid leukemia L1210 cells; details: cited from earlier work
[5] = test system: cultured lymphoid leukemia L1210 cells; details: data from Tong et al. 1976, read-out: Inhibition of Synthesis of RNA, ED50; cited from earlier work
[6] = test system: cultured lymphoid leukemia L1210 cells; assay: cytotoxicity vs cultured L1210 leukemia cells; format: cell-based; details: for IC50: cultured L1210 leukemia cells, read-out: Cytotoxicity I50
Procedure: (§1) The septacidin analogs 2 and 3 (corresponding to the compounds of Examples I and II, respectively) were tested first in cultured lymphoid leukemia L1210 cells for inhibition of nucleic acid syntheses and for cytotoxicity,by previously reported procedures. A sample of natural septacidin (compound 1) was obtained from the National Cancer Institute and included for comparison. Data on adriamycin (compound 4) are also included. The analogs were then tested, along with 1 and 4, against lymphocytic leukemia P388 implanted in mice, under the auspices of the NCI and according to its protocols which use the increased survival time of treated animals compared to controls as the measure of antitumor efficacy.
(§2) ^b Assay described in G. Tong, W. W. Lee, D. R. Black and D. W. Henry

[7] = test system: cultured lymphoid leukemia L1210 cells; assay: in vitro activity in cultured L1210 cells (inhibition of nucleic acid syntheses); format: cell-based
Procedure: as §1, §2

[8] = test system: lymphocytic leukemia P388 implanted in mice; assay: antitumor efficacy vs P388 leukemia in mice (increased survival time); format: in vivo; details: for antitumor activity in mouse tests: NCI criteria, doses of 0.5-1.0 mg/kg; for Optimum Antitumor Efficacy, T/C / Optimum Antitumor Dose: P388 leukemia in mice; for Optimum Antitumor Efficacy, T/C: at optimum dose (septacidin 0.50, compounds 2 and 3 1.0 mg/kg), compounds 2 and 3 average from two tests; for Optimum Antitumor Dose: dose producing the highest T/C
Procedure: as §1
^c Assay described in R. I. Geran, N. H. Greenberg, M. M. MacDonald,
A. M. Schumacker and B. J. Abbott, Cancer Chemother. Rep., Part 3, 3 (No.
2), 9 (1972). Protocol 1.200. Other doses were higher or lower by a facto
of 2. Each compound has 2-4 active doses. Compounds were of borderline
solubility, and some doses were injection as suspensions. Water, water +
Tween 80, or saline + Tween 80 (emul. agent, ICI) were used as vehicles.
By definition, a compound is active if T/C […] 125. For compounds 2
and 3 the T/C is the average from two tests. Optimum dose is the one
producing the highest T/C.

[9] = antitumor activity (test not specified)
[10] = test system: cultured lymphoid leukemia L1210 cells; assay: inhibition of RNA synthesis in cultured L1210 leukemia cells; format: cell-based
Procedure: as §1, §2

[11] = test system: cultured lymphoid leukemia L1210 cells; assay: inhibition of DNA synthesis in cultured L1210 leukemia cells; format: cell-based
Procedure: as §1, §2

solubility = format: physicochemical
isolated helical DNA [12] = assay: binding to isolated helical DNA in solution (effect on helix-coil transition temperature)
Source text: The in vivo efficacy of adriamycin is much higher, but there are other differences.
as §2
by the modified procedure.

[13] = Mus musculus, cultured L1210 leukemia cells, read-out: Inhibition of Synthesis of RNA, ED50
[14] = in vitro, compared with septacidin (1)
[15] = Mus musculus, cultured L1210 leukemia cells, read-out: Inhibition of Synthesis of DNA, ED50

SMILES: COc1cccc2c1C(=O)c1c(O)c3c(c(O)c1C2=O)C[C@@](O)(C(=O)CO)C[C@@H]3O[C@H]1C[C@H](N)[C@H](O)[C@H](C)O1 [Adriamycin]
- Binding to Isolated Helical DNA in Solution, ΔTm (isolated helical DNA [1]; modified procedure, data from Tong et al. 1976): 13.6 °C
- binding to isolated helical DNA in solution (isolated helical DNA [1]; ΔTm): binds strongly
- Optimum Antitumor Efficacy, T/C ([2]; P388 leukemia in mice, at 1.0 mg/kg, qd 1-9, data from Tong et al. 1976): 193%
- Optimum Antitumor Dose ([2]; P388 leukemia in mice, qd 1-9, data from Tong et al. 1976): 1.0 mg/kg
- in vivo efficacy ([2]; adriamycin compared with 2): much higher
- IC50 [3]: 1500 nM
- cytotoxicity [4]: highly cytotoxic
- IC50 ([4]; cultured L1210 leukemia cells, data from Tong et al. 1976, read-out: Cytotoxicity I50): 32 nM
- IC50 [5]: 670 nM

SMILES: CCCCCCCCCCCC(=O)NCC(=O)N[C@@H]1[C@@H](O)[C@H](O)[C@@H](Nc2ncnc3[nH]cnc23)O[C@H]1C [Compound 3, 6-[4,6-Dideoxy-4-(lauroylglycyl)amino-β-L-glucopyranosylamino]-9H-purine]
- IC50 ([6]; Mus musculus): > 10 µM
- in vitro activity ([7]; compared with septacidin (1) or analog 2): noticeably less potent; also recorded: decreased activity in vitro
- antitumor activity in mouse tests ([8]; P388 in mice): confirmed activity
- Optimum Antitumor Efficacy, T/C ([8]; qd 1-9): 137%
- Optimum Antitumor Dose ([8]; qd 1-9): 1.0 mg/kg
- efficacy in vivo ([8]; fatty acid shortened from 16 to 12 carbons, compared with 2): slight loss of efficacy in vivo
- IC50 [10, 13]: 18000 nM
- IC50 [11, 15]: 29000 nM
- solubility in CH3OH (solubility): moderately soluble
- solubility in H2O or saline (solubility): slightly soluble

SMILES: CCCCCC(=O)NCC(=O)NC1C(C)OC(Nc2ncnc3[nH]cnc23)C(O)C1O [Example VI, 6-[4,6-Didoexy-4-(caproylglycyl)amino-β-L-glucopyranosylamino]-9H-purine]
- antitumor activity [9]: inactive; also recorded: loss of activity was total

Second part, led by results:

- IC50 [10, 13]: 880 nM
- IC50 [11, 15]: 2600 nM
- solubility in CH3OH (solubility): moderately soluble
- solubility in H2O or saline (solubility): slightly soluble
- Binding to Isolated Helical DNA in Solution, ΔTm (isolated helical DNA [12]): 0.6 °C
- binding to isolated helical DNA in solution (isolated helical DNA [12]; ΔTm): binds only weakly
SMILES: CC(C)CCCCCCCCCCCCC(=O)NCC(=O)NC1C(C)OC(Nc2ncnc3[nH]cnc23)C(O)C1O [Compound 2, 6-[4,6-Dideoxy-4-(isopalmitoylglycyl)amino-β-L-glucopyranosylamino]-9H-purine]
- IC50 ([6]; Mus musculus): > 20 µM
- cytotoxic effects ([6]; at soluble levels): could not be observed at soluble levels
- inhibition of nucleic acid synthesis [7]: potent inhibition of nucleic acid synthesis
- antitumor activity in mouse tests ([8]; P388 in mice): confirmed activity
- Optimum Antitumor Efficacy, T/C ([8]; qd 1-9): 160%
- Optimum Antitumor Dose ([8]; qd 1-9): 1.0 mg/kg
- antitumor activity [9]: enhanced antitumor activity
- potency compared with adriamycin ([9]; comparison of both in vivo and in vitro data): comparable in potency
- response in the RNA test [10, 14]: a response nearly the same as 1
- potency in the DNA test [11, 14]: not as potent

- IC50 ([10]; cultured L1210 cells, corrected for 75% purity, assuming inactive impurities, read-out: Inhibition of Synthesis of RNA, ED50, corrected for purity): 530 nM
- IC50 ([10]; cultured L1210 leukemia cells, read-out: Inhibition of Synthesis of RNA, ED50): 700 nM
- IC50 ([11]; cultured L1210 cells, corrected for 75% purity, assuming inactive impurities, read-out: Inhibition of Synthesis of DNA, ED50, corrected for purity): 230 nM
- IC50 ([11]; cultured L1210 leukemia cells, read-out: Inhibition of Synthesis of DNA, ED50): 300 nM
SMILES: CC(C)CCCCCCCCCCCCC(=O)NCC(=O)NC1C(O)C(O)C(Nc2ncnc3nc[nH]c23)OC1C(O)CO (stereo not drawn) [Septacidin]
- IC50 [6]: > 5 µM
- Optimum Antitumor Dose, corrected for purity ([8]; P388 in mice, qd 1-9, corrected for 75% purity, assuming inactive impurities): 0.38 mg/kg
- antitumor activity in mouse tests ([8]; P388 in mice): high antitumor potency
- Optimum Antitumor Efficacy, T/C ([8]; qd 1-9): 154%
- Optimum Antitumor Dose ([8]; qd 1-9): 0.50 mg/kg
